{"source": "paper PMC8297402", "about": "“Trifluoromethyl-substituted 3,5-bis(arylidene)-4-piperidones as potential anti-hepatoma and anti-inflammation agents by inhibiting NF-кB activation” (Journal of Enzyme Inhibition and Medicinal Chemistry, 2021)", "key": {"p-IκBα": {"tested_on": "p-IκBα", "test": "Western blot, LPS-stimulated phosphorylation of IκBα in RAW264.7 cells", "assay_type": "cell-based, mouse", "conditions": "RAW264.7, 1.0, 2.0, 4.0 μM, LPS 1.0 μg/mL 30 min", "text": "(§1) Primary antibodies (anti-Bax, Abcam, ab32503; anti-Bcl-2, Abcam, ab194583; anti-Cleaved caspase-3, Abcam, ab2302; anti-p65, Cell Signalling Technology, 8242S; anti-p-p65, Cell Signalling Technology, 3033S; anti-IκBα, Cell Signalling Technoligy, 4812S; anti-p-IκBα, Cell Signalling Technology, 2859S; anti-p38, Cell Signalling Technology, 8690S; anti-p-p38, Cell Signalling Technology, 4511S; anti-JNK, Cell Signalling Technology, 9258 T; anti-p-JNK, Santa Cruz Biotechnology, sc-6254; anti-GAPDH, Abcam, ab181602), and goat anti-rabbit IgG/HRP secondary antibodies (Cell Signalling Technology, 98164 s) were purchased and used according to the manufacturer’s instructions. HepG2 cell lines were incubated with different doses of BAP 16 (1.0, 2.0, 4.0 μM) for 24 h (Bax, Cleaved caspase-3, Bcl-2). RAW264.7 cells were incubated with BAP 16 for 1 h, then treated with LPS (1.0 μg/mL) for 30 min. Afterward cell extraction was performed and extracts were used for Western blot analysis. Next, 30 μg protein of cell lysates were separated by 12% SDS-PAGE gel. The proteins were then transferred onto nitrocellulose membranes. […] By using Quantity One software (Bio-Rad), western blotting results were quantified from more than three separate experiments."}, "Bcl-2": {"tested_on": "Bcl-2", "test": "Western blot, Bcl-2 expression in HepG2 cells", "assay_type": "cell-based, Human", "conditions": "HepG2, 1.0, 2.0, 4.0 μM, 24 h", "text": "as §1"}}}
{"smiles": "O=C1C(=Cc2cccc(C(F)(F)F)c2)CN(S(=O)(=O)c2ccc(C(F)(F)F)cc2)CC1=Cc1cccc(C(F)(F)F)c1", "note": "[BAP 16]", "values": [{"measurement": "Expression level of p-IκBα", "setting": "p-IκBα", "value": "significantly decreased in a dose-dependent manner"}, {"measurement": "Expression of anti-apoptotic protein Bcl-2", "setting": "Bcl-2", "value": "decreased in a dose-dependent manner"}]}
